Laboratory results reported in patent publication US20050249743A1, “Isolated peptides which bind to HLA-A24 molecules and uses thereof” (priority 2004, published 2005).
Where no end group is shown, it is not given here.

B1: peptide NYKRCFPVI (SEQ ID NO: 1) from MAGE-4 (peptide)
peptide: NYKRCFPVI
notes: Synthetic 9-mer; also called MAGE-4 antigenic peptide; MAGE-4.A24 peptide

Experiments:
HLA-A2402 = target: T1, HLA-A2402 (Homo sapiens, UniProt P04439, D101N/D140Y/D185E/E176V/E190D/F33S/G103R/G107R/I119L/I121M/I306V/K335N/L105A/L180Q/L300P/N151K/N90K/Q86E/Q94H/R106L/R138H/R89G/T104I/T345S/V100E/W191G/Y123F); test: in vitro folding of recombinant HLA-A2402 with beta2-microglobulin and peptide (tetramer production); type: binding; conditions: recombinant HLA-A2402 folded in vitro with beta2-microglobulin and peptide
T1 construct: made in house; host or cells: E. coli
Description: (§1) Recombinant HLA-A2402 molecules produced in E. coli were folded in vitro with beta2-microglobulin and peptide NYKRCFPVI (SEQ ID NO: 1) from MAGE-4, or peptide LYVDSLFFL (SEQ. ID NO: 2) from PRAME (control) (See Ikeda, et al., Immunity 6:199-208 (1997)), in accordance with Altman, et al., Science 274:94-96 (1996). The peptide of SEQ ID NO: 1 corresponds to amino acids 143-151 of MAGE-4. This specific peptide was selected because it is homologous to the peptide NYKHCFPEI (SEQ ID NO: 3), a MAGE-1 encoded peptide previously shown to be recognized by HLA-A24 restricted T cells. See Fujie, et al., Int. J. Cancer 80(2):169-172 (1999).
The HLA-peptide complexes were then purified by gel filtration, biotinylated and mixed as described in Altman, et al., supra with extraviden-phycoerythrin (PE) for the HLA-A24/MAGE-4 tetramer, or streptavidin-APC for the PRAME control tetramer. Both extravidin-PE and streptavidin-APC are commercially available. The tetramers were then used to label T cells, as described in the next example.

[1] = test system: HLA-A24+ Epstein Barr Virus-transformed B (EBV-B) cells; test: chromium release assay, CTL 13 against peptide pulsed EBV-B cells; type: cell-based
Method: In this experiment, CTL 13 was tested for specific lytic activity in standard chromium release assays.
In the assay, the targets of CTL 13 were HLA-A24^+ Epstein Barr Virus-transformed B (EBV-B) cells. The EBV-B cells were cultured in IMDM supplemented with 10% fetal calf serum, 0.24 mM L-asparagine, 0.55 mM L-arginine, AAG, 100 U/ml penicillin and 100 μg/ml streptomycin. The EBV-B cells were labeled with ^51Cr for one hour according to standard methods and then incubated for 5 minutes with peptide NYKRCFPVI (SEQ ID NO: 1) (1 μg/ml). The ^51Cr labeled, peptide pulsed EBV-B cells (targets) were then combined with CTL 13 (effector) at effector-to-target ratios shown in FIG. 3A. Chromium release was measured after 4 hours.
In further experiments, the HLA-A24 EBV-B cells were labeled with ^51Cr for one hour according to standard methods and then incubated for 15 minutes with threefold dilutions of the synthetic peptide NYKRCFPVI (SEQ ID NO: 1). CTL 13 was subsequently added at an effector-to-target ratio of 10:1 and chromium release was measured after 4 hours. The concentration of peptide shown in FIG. 3B corresponds to the concentrations during the 4 hour incubation. […] This is in the range of concentration observed for the previously identified antigenic MAGE peptides, for which values ranging from 0.05 to 200 nM have been observed. […]

[2] = target: Recombinant HLA-A2402 molecules produced in E. coli, folded with beta2-microglobulin (human); test: in vitro folding of recombinant HLA-A2402 with beta2-microglobulin and peptide
Description: as §1, with “NYKRCFPVI” left out, “LYVDSLFFL” left out, “NYKHCFPEI” left out

| Molecule | formation of HLA-A2402/peptide complexes (HLA-A2402) | EC50 ([1]; CTL 13, effector-to-target ratio 10:1, chromium release after 4 hours, read-out: peptide concentration giving half maximal lysis of peptide pulsed HLA-A24 target cells) [nM] | lysis of peptide pulsed target cells by CTL 13 ([1]; peptide 1 μg/ml, 5 minutes pulse, chromium release after 4 hours, unpulsed control targets not lysed) | binding result [2] |
| --- | --- | --- | --- | --- |
| NYKRCFPVI [SEQ ID NO: 1, NYKRCFPVI] | successful production of HLA-A2402 and SEQ ID NO: 1 peptide complexes | 8 | lysed target cells pulsed with SEQ ID NO: 1 peptide |  |
| B1 |  |  |  | binds |
